Series [1] deals with NDM-1 (Klebsiella pneumoniae, UniProt C7C422). Description: biochemical. Particulars: NDM-1 IC50, 300 μM imipenem, 10 mM HEPES pH 7.5, 25 °C; average of at least two independent assays. In kind it is biochemical.
In series [2] the target is IMP-1 (Serratia marcescens, UniProt P52699). Description: biochemical. Type of series: biochemical.
Series [3] has as its system NDM-1-producing strain Escherichia coli NTBC121. Description: Whole-cell meropenem potentiation, CLSI broth microdilution MIC. Type of series: cell-based. Particulars: inhibitor present at 100 μM; E. coli NTBC121 (NDM-1); meropenem alone 32 μg/mL. Here is the method:
(§1) Minimal inhibitory concentrations (MIC) were determined using the Clinical Laboratory Standards Institute (CLSI) broth microdilution procedure. MBL-positive Enterobacteriaceae clinical isolates tested in the susceptibility study included NDM-1-producing strain E. coli NTBC121, VIM-1-producing strain K. pneumoniae NTBC055, and IMP-1-producing strain K. pneumoniae NTBC062. (Individual MICs for all strains tested are presented in Table 2 and Table 1 in the Supporting Information).
Background: In broth dilution the organism is exposed to a series of concentrations in liquid medium.

Series [4] in a line: Kinetic solubility in PBS pH 7.4. In kind it is physicochemical. Particulars: for solubility at 4 h: phosphate-buffered saline, pH 7.4, aqueous buffer, thermodynamic from solid. Here is the method:
This was determined by vigorous stirring (1200 rpm) of a 20 mg/mL mixture of the test compound in phosphate-buffered saline (PBS) at pH 7.4 for 4 h. The mixture was then centrifuged for 20 min at 10 000 rpm and the supernatant further processed by filtration. The concentration of the test compound in the filtrate was then determined by high-performance liquid chromatography (UV analysis) by comparison to a standard calibration curve of the test compound.

Series [5] has as its system NDM- and VIM-producing clinical strains. On the set-up: method as in PMID 29530861. Particulars: cited from earlier work.
Series [6] concerns E. coli (IR3). Details: method as in PMID 29530861. Particulars: E. coli (IR3) murine thigh infection model, in combination with meropenem; cited from earlier work.
For series [7], the target named is VIM-1 (Pseudomonas aeruginosa, UniProt A0A0F7KYQ8). The series can be described thus: biochemical. Type of series: biochemical.
Series [8] concerns NDM-1-producing Escherichia coli (DH5α/pLBII-NDM-1). The series can be described thus: Imipenem MIC on laboratory strain. Type of series: cell-based. Particulars: tested at concentrations up to 1 mM; data not shown.
The target of series [9] is Aeromonas hydrophila CphA MBL. Details: method as in PMID 17307979. Particulars: read-out: Ki [inhibition constant] CphA; cited from earlier work.
In series [10] the target is T1, VIM-2 (Escherichia coli, UniProt Q5U7L7). The series can be described thus: biochemical.
Series [11] has as its system VIM-1-producing strain Klebsiella pneumoniae NTBC055. Description: Whole-cell meropenem potentiation, CLSI broth microdilution MIC. Type of series: cell-based. Particulars: inhibitor present at 100 μM; K. pneumoniae NTBC055 (VIM-1); meropenem alone 16 μg/mL. Here is the method:
as §1

In series [12] the test system is IMP-1-producing strain K. pneumoniae NTBC062. The series is described as above. Type of series: cell-based, Klebsiella pneumoniae. Particulars: inhibitor present at 100 μM; K. pneumoniae NTBC062 (IMP-1); meropenem alone 4 μg/mL. Here is the method: as §1
Series [13] addresses T1, VIM-2. Particulars: tested up to 200 μM.

Converted amounts (≈) assume the structure as drawn. “And” between values parts separate entries of the source, which are not always exact repeats. Equal values may be shown once. Read-outs that look alike come from different tables or passages of the source.

For orientation: IC50 means the concentration that gives 50% inhibition. A lower IC50 goes with greater potency in that assay. By solubility is commonly meant how much of the substance goes into solution per volume. As usually defined, the Ki is the equilibrium dissociation constant of an inhibitor or competing ligand from its target.

Chain of IMP-1 (P52699 19-246, looked up, species assumed): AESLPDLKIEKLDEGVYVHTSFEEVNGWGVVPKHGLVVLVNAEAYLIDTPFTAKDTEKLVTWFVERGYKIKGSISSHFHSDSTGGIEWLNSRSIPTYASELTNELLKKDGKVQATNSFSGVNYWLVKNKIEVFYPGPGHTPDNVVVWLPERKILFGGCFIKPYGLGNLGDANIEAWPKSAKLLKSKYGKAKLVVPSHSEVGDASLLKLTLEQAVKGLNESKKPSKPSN
Chain of NDM-1 (C7C422 29-270, looked up, species assumed): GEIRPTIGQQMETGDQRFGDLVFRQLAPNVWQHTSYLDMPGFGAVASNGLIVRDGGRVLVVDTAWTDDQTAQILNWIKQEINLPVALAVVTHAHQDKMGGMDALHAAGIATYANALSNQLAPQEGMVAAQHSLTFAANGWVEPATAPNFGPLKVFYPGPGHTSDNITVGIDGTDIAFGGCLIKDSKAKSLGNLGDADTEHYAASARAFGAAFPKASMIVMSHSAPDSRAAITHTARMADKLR

For the compound `O=C(O)c1ncsc1NS(=O)(=O)c1cccnc1` [Compound 76, 5-(Pyridine-3-sulfonamido)-1,3-thiazole-4-carboxylic acid], the half-inhibitory concentration (IC50) in series [1] turned out to be 2.67 µM; in [2], 54 µM. In addition, the “MICMEM (meropenem MIC in presence of inhibitor) vs NTBC121” value in [3] came to 0.06 µg/mL. Besides, the solubility at 4 h in [4] (acid form, read-out: solubility) is 2.4 mg/mL (≈ 8.41 mM); in series [4] (sodium salt, read-out: solubility (Na salt)), approximately 20 mg/mL. For the same compound, the “solubility (Na salt)” value in series [4] (sodium salt) was determined as 16.9 mg/mL. Besides, in series [5] (listed as ANT431), the “effective inhibitor concentration for potentiation of meropenem” value is 28 μM and 8 μg/mL. For the same compound, in series [5] (panel of 94 randomly selected NDM- and VIM-producing clinical strains), the “potentiation of meropenem activity, in words” value was “potentiate meropenem activity”. The “efficacy with meropenem in thigh infection model, in words” value in [6] is on record as “restore the efficacy of meropenem”.
For `O=C(O)c1ccccn1` [Compound 1, pyridine-2-carboxylic acid, reference compound], the IC50 is 17.1 µM in series [1], more than 200 µM in [7], more than 200 µM in [2] and more than 200 µM in [10]. Further, the “inhibition of VIM-1, in words” value in series [7] (tested up to 200 μM) is given as “no significant activity”. Besides, the “inhibition of IMP-1, in words” value in series [2] (tested up to 200 μM) is “no significant activity”. In addition, in [8], the “reduction of imipenem MIC” value was “no reduction”. Moreover, the Ki in [9] was 6 µM.
In the case of `O=C(O)c1ncccc1NS(=O)(=O)Cc1cc(Cl)cc(Cl)c1` [Compound 43], the concentration for half-maximal inhibition (IC50) is 18.6 µM in series [1], 57.2 µM in series [7], 180 µM in series [2] and 0.3 µM in series [10]. In addition, the “MICMEM (meropenem MIC in presence of inhibitor) vs NTBC121” value in [3] was found to be 8 µg/mL. Besides, in series [11], the “MICMEM (meropenem MIC in presence of inhibitor) vs NTBC055” value came to 1 µg/mL. The “MICMEM (meropenem MIC in presence of inhibitor) vs NTBC062” value in series [12] stood at 1 µg/mL. The “inhibition of VIM-2, in words” value in series [13] is “strong inhibition”.
Consider `O=C(O)c1ncccc1NS(=O)(=O)c1ccccc1` [Compound 32], for which the half-inhibitory concentration (IC50) was 49.9 µM in [1], more than 200 µM in series [7], more than 200 µM in [2] and 1.9 µM in [10]. In [3], the “MICMEM (meropenem MIC in presence of inhibitor) vs NTBC121” value came to 16 µg/mL. Besides, in series [11], the “MICMEM (meropenem MIC in presence of inhibitor) vs NTBC055” value worked out at 4 µg/mL. The “MICMEM (meropenem MIC in presence of inhibitor) vs NTBC062” value in series [12] turned out to be 2 µg/mL. The “inhibition of VIM-2, in words” value in series [13] is on record as “strong inhibition”.

These data come from paper PMC6332448, “SAR Studies Leading to the Identification of a Novel Series of Metallo-β-lactamase Inhibitors for the Treatment of Carbapenem-Resistant Enterobacteriaceae Infections That Display Efficacy in an Animal Infection Model” (ACS Infectious Diseases, 2018).
